Source: publication PMC7021098 (Journal of Antimicrobial Chemotherapy, 2019)
pEC50: −log10 of the molar value. Like-named read-outs stand apart in the source and are kept apart here. Marks after values point to notes of the source that are not given here.

What was measured:
[1] = cited from earlier work
[2] = Cabotegravir and rilpivirine concentrations in plasma and CSF by HPLC-MS/MS; type: in vivo, HIV-infected adults; settings: for Total plasma drug / Total CSF drug / Unbound plasma drug / Total CSF/total plasma (%) / Kp: median (minimum–maximum); for Total CSF/total plasma (%) / Kp: paired samples; for Kp: human, CSF/plasma, intramuscular, Total CSF/total plasma (%)
[3] = system: WT HIV-1; settings: cited from earlier work; for in vitro EC50 for WT HIV-1: ref 10 (cabotegravir), 37 (rilpivirine)
[4] = system: plasma proteins; settings: cited from earlier work
[5] = Phase 1, monthly IM LA, cited from earlier work
[6] = system: P-glycoprotein; settings: in vitro; ref 42 (cabotegravir), 43 (rilpivirine); cited from earlier work
[7] = system: breast cancer resistance protein (BCRP); settings: in vitro; ref 42 (cabotegravir), 43 (rilpivirine); cited from earlier work
[8] = cited from earlier work; for reported CSF distribution: other NNRTIs
[9] = Q4W, n = 3, 7 ± 3 days after injection
[10] = Q8W, n = 15, 7 ± 3 days after injection

For `O=C(NCc1c(F)cc(F)cc1F)c1cn2c(c(O)c1=O)C(=O)N1[C@H]3CC[C@H](C3)O[C@@H]1C2` [bictegravir], the “protein binding in CSF” value [1] is listed as “predominantly protein-bound”.
For `C[C@H]1CO[C@@H]2Cn3cc(C(=O)NCc4ccc(F)cc4F)c(=O)c(O)c3C(=O)N12` [cabotegravir], the Total plasma drug ([2]; Q4W (cabotegravir LA 400 mg + rilpivirine LA 600 mg IM every 4 weeks), n = 3, 7 ± 3 days after injection) was 3.02 (2.37–5.10) μg/mL, the “median CSF level, fold above in vitro EC50 for WT HIV-1” value (from here on “median CSF level, fold above”) ([2]; Q4W group) was 127 fold and the “Total CSF drug” value [2, 9] was 0.0127 (0.0082–0.0159) μg/mL. The Unbound plasma drug [2, 9] was 0.0019 (0.0014–0.0698) μg/mL, the “Total CSF/total plasma (%)” value ([2]; Q4W, n = 3) was 0.344 (0.312–0.421) % and the Total plasma drug ([2]; Q8W (cabotegravir LA 600 mg + rilpivirine LA 900 mg IM every 8 weeks), n = 15, 7 ± 3 days after injection) was 3.92 (1.30–6.41) μg/mL. For the same compound, the “median CSF level, fold above” value ([2]; Q8W group) was 106 fold, the “Total CSF drug” value ([2]; Q8W, n = 13, 7 ± 3 days after injection) was 0.0106 (0.0053–0.0245)^c μg/mL and the “Total CSF/total plasma (%)” value ([2]; Q8W, n = 13) was 0.304 (0.218–0.449)^c %. For the same compound, the Unbound plasma drug [2, 10] was 0.0047 (0.0007–0.0220) μg/mL, the Kp ([2]; Q4W, n = 3) was 0.003 and the Kp ([2]; Q8W, n = 13) was 0.0034. For the same compound, the pEC50 ([3]; read-out: EC50 for WT HIV-1 clade B) was 9.60, the “in vitro EC50 for WT HIV-1” value [3] was 0.10 ng/mL and the “bound to plasma proteins” value [4] was over 99.8%. For the same compound, the “maximum plasma concentrations (geometric mean)” value ([5]; after the fourth dose of cabotegravir) was 2.2 to 4.4 µg/mL, the “time to maximum plasma concentrations” value [5] was “approximately 1 week” and the “substrate for P-glycoprotein” value [6] was “substrate”. The “substrate for breast cancer resistance protein (BCRP)” value [7] was “substrate”.
In the case of `Cc1cc(/C=C/C#N)cc(C)c1Nc1ccnc(Nc2ccc(C#N)cc2)n1` [rilpivirine], the “median CSF level, fold above” value ([2]; Q4W group) was 6 fold, the Total plasma drug [2, 9] was 134 (83.0–187) ng/mL and the “Total CSF drug” value ([2]; Q4W, n = 3) was 1.67 (1.40–2.47) ng/mL. For the same compound, the “Total CSF/total plasma (%)” value ([2]; Q4W, n = 3) was 1.32%, the “Total CSF/total plasma (%)” value ([2]; Q4W, n = 3, listed as Rilpivirine) was 1.32 (1.25–1.69) % and the “median CSF level, fold above” value ([2]; Q8W group) was 7 fold. The “Total CSF/total plasma (%)” value ([2]; Q8W, n = 13) was 1.07%, the “Total CSF/total plasma (%)” value ([2]; Q8W, n = 13, listed as Rilpivirine) was 1.07 (NQ to 1.52)^c^, d % and the Total plasma drug [2, 10] was 192 (91.7–378) ng/mL. For the same compound, the Kp ([2]; Q4W, n = 3) was 0.0107, the Kp ([2]; Q8W, n = 13) was 0.0132 and the “plasma concentration in the participant with non-quantifiable CSF level” value ([2]; single participant) was 117 ng/mL. The “CSF concentration in the one participant with non-quantifiable level” value ([2]; single participant, Q8W, not quantifiable) was “under 1 ng/mL”, the “in vitro EC50 for WT HIV-1” value [3] was 0.27 ng/mL and the “bound to plasma proteins” value [4] was 99.7%. The “maximum plasma concentrations (geometric mean)” value ([5]; after the second dose of rilpivirine) was 0.126 to 0.168 µg/mL, the “time to maximum plasma concentrations” value [5] was “approximately 1 week” and the CSF-to-plasma ratio ([8]; 25 mg administered orally for 60 days) was 1.4%. The “substrate for P-glycoprotein” value [6] was “not a substrate” and the “substrate for breast cancer resistance protein (BCRP)” value [7] was “not a substrate”.
For `Cc1cc(C#N)cc(C)c1Oc1nc(Nc2ccc(C#N)cc2)nc(N)c1Br` [etravirine], the “reported CSF distribution” value [8] is listed as 1% and the “protein binding in CSF” value [1] is listed as “predominantly protein-bound”.
For `C[C@@H]1CCO[C@H]2Cn3cc(C(=O)NCc4ccc(F)cc4F)c(=O)c(O)c3C(=O)N12` [dolutegravir], the “CSF inhibitory quotient (ratio of drug concentration to EC50), median” value [8] is listed as 66–90 fold and the CSF-to-plasma ratio ([8]; oral administration at 50 mg once daily) is listed as 0.41%.
In the case of `O=C1Nc2ccc(Cl)cc2[C@@](C#CC2CC2)(C(F)(F)F)O1` [efavirenz], the “reported CSF distribution” value [8] is given as 0.5%.
